Reference: ChEMBL document CHEMBL5647681, “Lack of the aryl hydrocarbon receptor leads to impaired activation of AKT/protein kinase B and enhanced sensitivity to apoptosis induced via the intrinsic pathway” (J Pharmacol Exp Ther, 2007)
Calls of active or inactive are those of the source. The calls are words filed in the database; no cut-off is given here.

Experiments:
[1] = Toxicity in AHR deficient mouse LA1 cells assessed as induction of apoptosis by measuring increase in caspase-3 activity at 0.1 to 1 uM incubated for 24 hrs in absence of UV-irradiation by caspase 3 Assay; details: la1, 24 h
[2] = biological target: Aryl hydrocarbon receptor (Mus musculus) (UniProt P30561); assay: Antagonist activity at AHR in wild type mouse Hepa1c1c7 cells assessed as potentiation of UV-irradiation-induced apoptosis by measuring increase in caspase-3 activity at 0.1 to 1 uM incubated for 24 hrs before UV-irradiation for 24 hrs by caspase 3 Assay; details: hepa1c1c7, 48 h
LA1 = assay: Potentiation of UV-irradiation-induced apoptosis in AHR deficient mouse LA1 cells assessed as increase in caspase-3 activity at 0.1 to 1 uM incubated for 24 hrs before UV-irradiation for 24 hrs by caspase 3 Assay; details: dose 0.1-1 µM, time 48.0 hrs
[3] = biological target: Aryl hydrocarbon receptor (Mus musculus) (UniProt P30561); assay: Antagonist activity at AHR in wild type mouse Hepa1c1c7 cells assessed as reduction in inhibition of EGFR phosphorylation at 10 uM incubated for 24 hrs before UV-irradiation and measured after 30 mins by Western blot analysis; details: hepa1c1c7, 24 h
[4] = biological target: Aryl hydrocarbon receptor (Mus musculus) (UniProt P30561); assay: Antagonist activity at AHR in wild type mouse Hepa1c1c7 cells assessed as reduction in inhibition of Akt/PKB phosphorylation at 10 uM incubated for 24 hrs before UV-irradiation and measured after 30 to 60 mins by Western blot analysis; details: hepa1c1c7, 10 µM

Aryl hydrocarbon receptor (Mus musculus), sequence (P30561 whole entry, looked up): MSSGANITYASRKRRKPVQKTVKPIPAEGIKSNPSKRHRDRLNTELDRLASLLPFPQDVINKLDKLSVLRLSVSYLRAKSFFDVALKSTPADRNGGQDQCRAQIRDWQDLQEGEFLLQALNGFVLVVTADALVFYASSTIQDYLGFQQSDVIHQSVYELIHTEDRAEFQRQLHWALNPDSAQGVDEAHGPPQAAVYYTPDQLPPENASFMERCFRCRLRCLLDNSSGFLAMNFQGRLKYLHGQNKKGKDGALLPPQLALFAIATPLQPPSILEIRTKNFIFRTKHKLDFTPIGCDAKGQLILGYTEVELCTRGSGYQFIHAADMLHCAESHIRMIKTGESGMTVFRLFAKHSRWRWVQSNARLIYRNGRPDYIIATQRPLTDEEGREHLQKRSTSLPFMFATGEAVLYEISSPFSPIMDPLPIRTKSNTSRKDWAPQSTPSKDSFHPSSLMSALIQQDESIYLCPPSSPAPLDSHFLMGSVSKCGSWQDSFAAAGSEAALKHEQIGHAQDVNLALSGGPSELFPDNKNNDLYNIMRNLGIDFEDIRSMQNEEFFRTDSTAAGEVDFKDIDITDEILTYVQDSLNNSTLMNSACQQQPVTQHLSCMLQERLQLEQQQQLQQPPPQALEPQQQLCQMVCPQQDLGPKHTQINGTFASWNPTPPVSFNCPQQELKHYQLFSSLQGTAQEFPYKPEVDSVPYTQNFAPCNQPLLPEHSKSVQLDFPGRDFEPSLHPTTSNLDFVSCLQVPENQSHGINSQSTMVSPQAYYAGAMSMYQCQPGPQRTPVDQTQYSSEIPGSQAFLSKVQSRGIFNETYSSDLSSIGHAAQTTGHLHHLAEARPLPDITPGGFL

- Activity [3]: Active
- Activity [4]: Active
SMILES: COc1cc(-c2cc(=O)c3ccccc3o2)ccc1[N+](=O)[O-]
- Activity [1]: Non-Toxic
- Activity [2]: Active
- Activity (LA1): Active
